Our source for the MIC99 and Selectivity index values is ChEMBL document CHEMBL1146913, “Symmetrical and unsymmetrical analogues of isoxyl; active agents against Mycobacterium tuberculosis” (2006).

Converted amounts (≈) assume the structure as drawn.

One test has as its system Mycobacterium tuberculosis. As to the kind of experiment: Antibacterial activity against Mycobacterium tuberculosis H37Rv. The format is functional.
As a reminder, the MIC99 is an inhibitory concentration at the 99% level, which refers to growth in some studies and to a panel of isolates in others. Read a low MIC99 as higher susceptibility. Compound `CCCCOc1ccc(NC(=S)Nc2ccc(SCCC)cc2)cc1` gave an MIC99 of 0.2 µg/mL (≈ 0.534 µM). For `CCCCOc1ccc(NC(=S)Nc2ccc(CCCC)cc2)cc1`, the MIC99 was under 0.1 µg/mL. In the case of `CCCCOc1ccc(NC(=S)Nc2ccc(SCC(C)C)cc2)cc1`, the MIC99 is over 6.25 µg/mL. As for `CCCCOc1ccc(NC(=S)Nc2ccc(Cc3ccccc3)cc2)cc1`, the MIC99 was determined as 0.39 µg/mL (≈ 0.999 µM).

The compound `CC(C)CSc1ccc(NC(=S)Nc2ccc(SCC(C)C)cc2)cc1` returned an MIC99 of 0.78 µg/mL (≈ 1.93 µM).

Compound `CCCCOc1ccc(NC(=S)Nc2ccc(OCCC(C)C)cc2)cc1` displayed an MIC99 of under 0.1 µg/mL. Still for that read-out and setting: for `CCCOc1ccc(NC(=S)Nc2ccc(OCCC)cc2)cc1` the value was 0.2 µg/mL (≈ 0.581 µM).

For the compound `CCCSc1ccc(NC(=S)Nc2ccc(Cc3ccccc3)cc2)cc1`, the MIC99 stood at 1.56 µg/mL (≈ 3.97 µM). In turn, `CC(C)CCOc1ccc(NC(=S)Nc2ccc(Cc3ccccc3)cc2)cc1` displayed an MIC99 of 0.2 µg/mL (≈ 0.494 µM). For `CCCCOc1ccc(NC(=S)Nc2ccc(OCC(C)C)cc2)cc1`, the MIC99 is 0.1 µg/mL (≈ 0.268 µM).

Take `CC(C)CCOc1ccc(NC(=S)Nc2ccc(OCC(C)C)cc2)cc1`: the MIC99 came out at 0.39 µg/mL (≈ 1.01 µM).

Regarding `CCCCc1ccc(NC(=S)Nc2ccc(OCCC)cc2)cc1`, the MIC99 was under 0.1 µg/mL. Consider `CC(C)CCOc1ccc(NC(=S)Nc2ccc(OCCC(C)C)cc2)cc1` [TIOCARLIDE], for which the MIC99 was 2 µg/mL (≈ 4.99 µM).

For another test, the system named is Vero. The test is described as follows: Selectivity index, IC50 against Vero cells/MIC against Mycobacterium. The format is functional.
On to `CCCCOc1ccc(NC(=S)Nc2ccc(SCCC)cc2)cc1`, for which the Selectivity index worked out at 45.5. The same measure, in the same setting: the result for `CCCCOc1ccc(NC(=S)Nc2ccc(CCCC)cc2)cc1` reads 87; that for `CCCCOc1ccc(NC(=S)Nc2ccc(Cc3ccccc3)cc2)cc1`, 22.1; that for `CC(C)CSc1ccc(NC(=S)Nc2ccc(SCC(C)C)cc2)cc1`, 12.4. Compound `CCCCOc1ccc(NC(=S)Nc2ccc(OCCC(C)C)cc2)cc1` returned a Selectivity index of 89. Take `CCCOc1ccc(NC(=S)Nc2ccc(OCCC)cc2)cc1`: the Selectivity index turned out to be 44. With `CCCSc1ccc(NC(=S)Nc2ccc(Cc3ccccc3)cc2)cc1`, the Selectivity index is 5.28. Regarding `CC(C)CCOc1ccc(NC(=S)Nc2ccc(Cc3ccccc3)cc2)cc1`, the Selectivity index was found to be 48. The compound `CCCCOc1ccc(NC(=S)Nc2ccc(OCC(C)C)cc2)cc1` gave a Selectivity index of 79.9. With `CC(C)CCOc1ccc(NC(=S)Nc2ccc(OCC(C)C)cc2)cc1`, the Selectivity index was 72. The compound `CCCCc1ccc(NC(=S)Nc2ccc(OCCC)cc2)cc1` had a Selectivity index of 100. On the same count and under the same terms, for `CC(C)CCOc1ccc(NC(=S)Nc2ccc(OCCC(C)C)cc2)cc1` [TIOCARLIDE] the value was 82.
